Source: patent US20250320227A1, “MACROCYCLIC OREXIN RECEPTOR AGONISTS AND USES THEREOF” (Jazz Pharmaceuticals Ireland Limited, priority 2022, published 2025)

Molecular target: T1, human recombinant OX2 (hOX2) receptors expressed in CHO cells (Homo sapiens, UniProt O43614)
T1 construct: host or cells: CHO cells (hOX2-CHO)
T1 sequence (O43614 1-444): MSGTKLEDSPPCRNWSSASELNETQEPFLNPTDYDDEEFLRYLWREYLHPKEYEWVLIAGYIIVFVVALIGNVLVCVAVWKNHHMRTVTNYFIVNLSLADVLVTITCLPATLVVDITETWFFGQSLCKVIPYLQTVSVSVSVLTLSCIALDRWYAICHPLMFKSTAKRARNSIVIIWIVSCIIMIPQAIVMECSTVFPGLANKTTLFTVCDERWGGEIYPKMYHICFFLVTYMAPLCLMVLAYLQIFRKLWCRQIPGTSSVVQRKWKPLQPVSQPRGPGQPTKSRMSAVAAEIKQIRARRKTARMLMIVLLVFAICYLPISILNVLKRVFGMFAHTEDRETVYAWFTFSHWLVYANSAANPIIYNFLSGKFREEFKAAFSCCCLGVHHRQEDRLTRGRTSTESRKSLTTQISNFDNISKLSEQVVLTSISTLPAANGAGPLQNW
Experiment: IP-1 accumulation assay (IP-One HTRF) in hOX2-CHO cells
Assay type: cell-based
Conditions: 60 min incubation at 37° C., mean of at least two independent experiments, read-out: EC50_OX2R Category
Description: The accumulation of Inositol-1 Monophosphate (IP-1) was measured using IP-One HTRF® Terbium cryptate based assay (Cisbio) in human recombinant OX1 (hOX1) and at OX2 (hOX2) receptors expressed in CHO cells (DiscoverX) according to the manufacturer's instructions for cells tested in suspension.
hOX1-CHO and hOX2-CHO cells were seeded into white 384-well plates at a density of 20,000 cells/well in Hank's Balanced Salt Solution (HBSS) containing 20 mM HEPES pH 7.4, 50 mM, LiCl and 0.1% and Bovine Serum Albumin (BSA).
Compounds of disclosure were tested in an 11 points concentration response curve (CRC) serially diluted in neat DMSO at 200 fold concentrations and added by Echo acoustic liquid handling (Labcyte) to the cells (0.5% DMSO final in the assay). After 60 min of incubation at 37° C. detection reagents, IP1-d2 tracer and anti-IP1-cryptate were diluted in lysis buffer according to the manufacturer's descriptions and added to the cells.
Following 60 min incubation at room temperature, time-resolved fluorescence (HTRF) was measured at 615 nm and 665 nm by Envision Multilabel reader (Perkin Elmer) and the HTRF ratio (A665/A615×10^4) was calculated.
The IP-1 accumulation response was expressed as percentage of the maximal OX-A response.
Curve fitting and EC50 estimations were carried out using a four-parameter logistic model using XLfit Software. Mean data of EC50 are calculated from at least two independent experiments performed in duplicates

Structure (SMILES) | EC50 [nM]
O=C1COCC2(CCCN3C(=O)COc4ccccc4[C@H]4CC[C@H](CC4)OCC32)N1 (stereo partly drawn) [Example 32, Rel-(1′s,3S,16′R,19′s)-8′,18′-dioxa-11′-azaspiro[morpholine-3, 15′-tetracyclo-[17.2.2.0^2,70.0^11,16]tricosane]-2′(7′),3′,5′-triene-5,10′-dione] | < 100
O=C1COCC2(CCCN3C(=O)CCOc4ccccc4[C@H]4CC[C@H](CC4)OCC32)N1 (stereo partly drawn) [Example 33, Rel-(1′s,3S,17′R,20's)-8′,19′-dioxa-12′-azaspiro[morpholine-3,16′-tetracyclo-[18.2.2.0^2,70.0^12,17]tetracosane]-2′(7′),3′,5′-triene-5,11′-dione] | < 100
O=C1COC[C@]2(CCCN3C(=O)CCOc4ccccc4[C@H]4CC[C@H](CC4)OC[C@@H]32)N1 (single isomer, unassigned) [Example 33b] | 100 to 1000
O=C1COCC2(CCN3C(=O)C4(CC4)COc4ccccc4[C@H]4CC[C@H](CC4)OCC32)N1 (mixture of isomers) [Example 7, Rel-(1′s, 15'S,16′R,19′s)-dispiro[cyclopropane-1,10′-[8,18]dioxa-[12]azatetracyclo[17.2.2.0^2,70.0^12,16]tricosane-15′,3″-morpholine]-2′(7′),3′,5′-triene-5″,11′-dione] | 1000 to 10000
O=C1COCC2(CCN3C(=O)COc4ccccc4[C@H]4CC[C@H](CC4)OCC32)N1 (mixture of isomers) [Example 3, rel-(1′s,3S, 15′R,18′s)-8′,17′-dioxa-11′-azaspiro[morpholine-3,14′-tetracyclo[16.2.2.0^2,70.0^11,15]docosane]-2′(7′),3′,5′-triene-5,10′-dione] | 1000 to 10000
C[C@@H]1C[C@]2(COCC(=O)N2)[C@H]2CO[C@H]3CC[C@H](CC3)c3cc(F)cc(F)c3OCC(=O)N12 (single isomer, unassigned) [Example 16b] | > 10000
C[C@@H]1C[C@]2(COCC(=O)N2)[C@H]2CO[C@H]3CC[C@H](CC3)c3cccc(Cl)c3OCC(=O)N12 (single isomer, unassigned) [Example 20b] | > 10000
C[C@@H]1C[C@]2(COCC(=O)N2)[C@H]2CO[C@H]3CC[C@H](CC3)c3cc(Cl)ccc3OCC(=O)N12 (single isomer, unassigned) [Example 21b] | > 10000
C[C@@H]1C[C@@]2(COCC(=O)N2)[C@@H]2CO[C@H]3CC[C@H](CC3)c3cccc(Cl)c3OCC(=O)N12 (single isomer, unassigned) [Example 20a] | 1000 to 10000
C[C@H]1COc2ccccc2[C@H]2CC[C@H](CC2)OC[C@H]2N(CC[C@]23COCC(=O)N3)C1=O (single isomer, unassigned) [Example 5b] | > 10000
O=C1COCC2(CCN3C(=O)CC(C(F)(F)F)Oc4ccccc4[C@H]4CC[C@H](CC4)OCC32)N1 (relative stereo) [Example 6, rel-(1′s,3S,16′R,19′s)-9′-(trifluoromethyl)-8′,18′-dioxa-12′-azaspiro[morpholine-3,15′-tetracyclo[17.2.2.0^2,70.0^12,16]tricosane]-2′(7′),3′,5′-triene-5,11′-dione] | 1000 to 10000
C[C@@H]1C[C@]2(COCC(=O)N2)[C@H]2CO[C@H]3CC[C@H](CC3)c3cc(F)ccc3OCC(=O)N12 (single isomer, unassigned) [Example 18b] | > 10000
C[C@@H]1CC2(COCC(=O)N2)C2Cc3cccc(c3F)-c3ccccc3CCCC(=O)N21 (mixture of isomers) [Example 28] | 1000 to 10000

Other lines, results leading:

EC50 [nM] | Structure (SMILES)
< 100 | CC1CC2(COCC(=O)N2)C2COC3CCC(CC3)c3ccncc3OCCC(=O)N12 (single isomer, unassigned) [Example 74]
> 10000 | O=C1COC[C@]2(CCCN3C(=O)COc4ncccc4[C@H]4CC[C@H](CC4)OC[C@@H]32)N1 [Example 45b, (1′s,3R,16′S,19′s)-8′,18′-dioxa-6′,11′-diazaspiro [morpholine-3,15′-tetracyclo[17.2.2. 0^2,^7.0^11,^16]tricosane]-2′(7′),3′,5′-triene-5,10′-dione]
< 100 | O=C1COc2ccccc2[C@H]2CC[C@H](CC2)OCC2N1CCCC21CCCS(=O)(=O)N1 (mixture of isomers) [Example 59, Rel-(1s, 15R,16R,19s)-8,18-dioxa-11-azaspiro[tetracyclo[17.2.2.0^2,70.0^11,16]tricosane-15,3′-[1λ^6,2]thiazinane]-2 (7),3,5-triene-1′,1′,10-trione]
1000 to 10000 | O=C1COC[C@]2(CCCN3C(=O)OCCCOc4cccc(c4)[C@H]4CC[C@H](CC4)OC[C@@H]32)N1 (single isomer, unassigned) [Example 54b]
< 100 | O=C1COCC2(CCCN3C(=O)C4(CC4)COc4cccc(F)c4[C@H]4CC[C@H](CC4)OCC32)N1 (mixture of isomers) [Example 72, (1′s,20′s)-3′-fluorodispiro [cyclopropane-1,10′-[8,19]dioxa-[12]azatetracyclo [18.2.2.0^2,^7.0^12,^17]tetracosane-16′,3″- morpholine]-2′,4′,6′-triene-5″,11′-dione]
> 10000 | CC1CC2(COCC(=O)N2)C2COC3CCC(CC3)c3ccncc3OCCC(=O)N12 (single isomer, unassigned) [Example 75]
< 100 | O=C1COC[C@@]2(CCCN3C(=O)OCCCOc4cccc(c4)[C@H]4CC[C@H](CC4)OC[C@H]32)N1 (single isomer, unassigned) [Example 54a]
> 10000 | O=C1COCC2(CCCN3C(=O)OCCOc4ccccc4-c4cccc(c4F)CC32)N1 (racemic) [Example 65, Rel-(3S, 18′S)-24′-fluoro-8′,11′-dioxa-13′-azaspiro[morpholine-3,17′-tetracyclo[18.3.1.0^2,70.0^13,18]tetracosane]-1′(24′),2′(7′),3′,5′,20′,22′-hexaene-5,12′-dione]
< 100 | CC1Oc2ccccc2[C@H]2CC[C@H](CC2)OCC2N(CCCC23COCC(=O)N3)C1=O (stereo partly drawn) [Example 35, Rel-(1′s,3S,16′R,19′s)-9′-methyl-8′,18′-dioxa-11′-azaspiro[morpholine-3, 15′-tetracyclo[17.2.2.0^2,70.0^11,16]tricosane]-2′(7′),3′,5′-triene-5,10′-dione]
< 100 | O=C1COc2ccccc2[C@H]2CC[C@H](CC2)OC[C@@H]2N1CCC[C@@]21CO[C@](F)(C(F)(F)F)C(=O)N1 (relative stereo) [Example 71a, rel-(1′s,3S,16′R,19′s)-6 (R)-fluoro-6-(trifluoromethyl)-8′,18′-dioxa-11′-azaspiro[morpholine-3,15′-tetracyclo[17.2.2.0^2,70.0^11,16]tricosane]-2′(7′),3′,5′-triene-5,10′-dione]
1000 to 10000 | O=C1COC[C@]2(CCCN3C(=O)COc4nccc(F)c4[C@H]4CC[C@H](CC4)OC[C@@H]32)N1 (single isomer, unassigned) [Example 46b]
1000 to 10000 | O=C1COc2ccccc2[C@H]2CC[C@H](CC2)OC[C@H]2N1CCC[C@]21CCCS(=O)(=O)N1 (single isomer, unassigned) [Example 59b]
< 100 | O=C1COCC2(CCCN3C(=O)OCCOc4cccc(c4)[C@H]4CC[C@H](CC4)OCC32)N1 (mixture of isomers) [Example 53, Rel-(1′s,3S,17′R,20's)-7′,10′,19′-trioxa-12′-azaspiro[morpholine-3,16′-tetracyclo[18.2.2.1^2,60.0^12,17]pentacosane]-2′(25′),3′,5′-triene-5,11′-dione]
< 100 | O=C1COCC2(CCCN3C(=O)C4(CC4)COc4ccccc4[C@H]4CC[C@H](CC4)OCC32)N1 (stereo partly drawn) [Example 37, Rel-(1′s,16′S,17′R,20's)-dispiro[cyclopropane-1,10′-[8,19]dioxa-[12]azatetracyclo[18.2.2.0^2,70.0^12,17]tetracosane-16′,3″-morpholine]-2′(7′),3′,5′-triene-5″,11′-dione]
1000 to 10000 | O=C1COC[C@]2(CCCN3C(=O)C4(CC4)COc4ccccc4[C@H]4CC[C@H](CC4)OC[C@@H]32)N1 (single isomer, unassigned) [Example 37b, (1′s,16′R,17′S,20′s)-dispiro[cyclopropane-1,10′-[8,19]dioxa-[12]azatetracyclo[18.2.2.0^2,70.0^12,17]tetracosane-16′,3″-morpholine]-2′(7′),3′,5′-triene-5″,11′-dione]
< 100 | Cc1cccc2c1[C@H]1CC[C@H](CC1)OCC1N(CCCC13COCC(=O)N3)C(=O)CO2 (stereo partly drawn) [Example 47, Rel-(1′s,3S,16′R,19′s)-3′-methyl-8′,18′-dioxa-11′-azaspiro[morpholine-3,15′-tetracyclo[17.2.2. 0^2,^7.0^11,^16]tricosane]-2′(7′),3′,5′-triene-5,10′-dione]
